Laboratory results published in PubChem BioAssay (NCI).
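In this assay, cells in 96-well plates receive the compound at five concentrations for 48 hours. Endpoints are linearly interpolated between the surrounding concentrations. GI50: concentration for 50% inhibition of growth. TGI: total growth inhibition.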

How the values were obtained:
Assay in all cases: NCI-60 cell line screen, 48 h
CAKI-1 renal = test system: CAKI-1 renal
SF-268 CNS = test system: SF-268 CNS
SK-MEL-28 melanoma = test system: SK-MEL-28 melanoma
CCRF-CEM leukemia = test system: CCRF-CEM leukemia
ACHN renal = test system: ACHN renal
SF-539 CNS = test system: SF-539 CNS
NCI-H23 lung = test system: NCI-H23 lung
A498 renal = test system: A498 renal
MOLT-4 leukemia = test system: MOLT-4 leukemia
TK-10 renal = test system: TK-10 renal

Row | SMILES | TGI (CAKI-1 renal) | TGI (SF-268 CNS) | TGI (SK-MEL-28 melanoma) | TGI (CCRF-CEM leukemia) | TGI (ACHN renal) | TGI (SF-539 CNS) | TGI (NCI-H23 lung) | TGI (A498 renal) | TGI (MOLT-4 leukemia) | GI50 (CAKI-1 renal) | GI50 (SF-268 CNS) | GI50 (ACHN renal) | GI50 (SF-539 CNS) | GI50 (TK-10 renal) | TGI (TK-10 renal) | GI50 (NCI-H23 lung) | GI50 (MOLT-4 leukemia) | GI50 (A498 renal) | GI50 (SK-MEL-28 melanoma) | GI50 (CCRF-CEM leukemia)
1 | Cc1cc(C)nc(NS(=O)(=O)c2ccc(Nc3c4ccccc4nc4c(C(=O)Nc5ccc(S(N)(=O)=O)cc5)cccc34)cc2)n1 | > 100 µM | > 100 µM | > 100 µM | > 100 µM | > 100 µM | > 100 µM | > 100 µM | > 100 µM | > 100 µM | – | – | – | – | – | – | – | – | – | – | –
2 | Nc1ccn(C=C=CCO)c(=O)n1 | > 1000 µM | > 1000 µM | – | > 1000 µM | > 1000 µM | > 1000 µM | > 1000 µM | – | > 1000 µM | > 1000 µM | > 1000 µM | > 1000 µM | > 1000 µM | > 1000 µM | > 1000 µM | > 1000 µM | 38.8 µM | – | – | –
3 | CC(=O)O[C@H]1C(=O)[C@@]2(C)C([C@H](OC(=O)c3ccccc3)[C@]3(O)C[C@H](OC(=O)[C@H](O)[C@H](NC(=O)c4ccccc4)c4ccc(Cl)cc4)C(C)=C1C3(C)C)C1(OC(C)=O)CO[C@@H]1C[C@@H]2O (stereo not given in full) | 23.9 µM | – | – | 12.9 µM | > 100 µM | 0.0026 µM | – | 30.4 µM | 2.36 µM | – | – | 1.66 µM | – | 0.0171 µM | 14.4 µM | – | – | 0.2 µM | – | –
4 | COc1ccc(-c2oc3cc(O)c(OC)c(O)c3c(=O)c2OC2OC(CO)C(O)C(O)C2O)cc1 (stereo not given) | – | – | > 100 µM | > 100 µM | > 100 µM | > 100 µM | > 100 µM | – | > 100 µM | – | – | – | – | – | > 100 µM | – | – | – | – | –
5 | CC(=O)c1ccc(Nc2cc(-n3ccnc3)nc3ccccc23)cc1 | 7.57 µM | 67.7 µM | > 100 µM | – | > 100 µM | 88.7 µM | > 100 µM | – | 58.1 µM | 1.71 µM | 14.8 µM | 48.4 µM | 40.6 µM | 15.6 µM | 63 µM | 49.6 µM | 10.7 µM | – | 29.8 µM | –
6 | CNC(=O)OCc1nc(SC(C)C)n(C)c1COC(=O)NC | > 100 µM | > 100 µM | > 100 µM | > 88 µM | > 100 µM | > 100 µM | > 100 µM | > 100 µM | > 86.6 µM | – | – | – | – | – | – | – | – | – | – | –
7 | Cc1ccc(-c2c(C#N)c(N)nc(N3CCOCC3)c2C#N)o1 | – | > 100 µM | > 100 µM | > 100 µM | – | > 100 µM | – | 54.4 µM | > 100 µM | – | > 100 µM | – | 48.3 µM | 35.4 µM | > 100 µM | – | 61.9 µM | 15.5 µM | 71.3 µM | 36.2 µM
8 | CC(=O)[CH-]C(=O)c1ccccc1.CC(=O)[CH-]C(=O)c1ccccc1.CCN(CC)CC[O-].CCN(CC)CC[O-].Cl.[Ti+4] | > 100 µM | > 100 µM | 92.6 µM | – | > 100 µM | 76.5 µM | – | 72.5 µM | 59.9 µM | 40.1 µM | 35.2 µM | 39.5 µM | 27.2 µM | – | – | – | 16.8 µM | 26.2 µM | 32.9 µM | –
9 | CCCCN(CCCC)C(=O)C(=O)CC(=O)c1ccc(Br)cc1 | > 100 µM | > 100 µM | – | > 100 µM | > 100 µM | > 100 µM | > 100 µM | > 100 µM | > 100 µM | – | – | – | – | – | > 100 µM | – | – | – | – | –
10 | COc1cc2c3c(n(C)c(=O)c2cc1OC)-c1cc2c(cc1/C3=C\CCCCN)OCO2 | 17.1 µM | – | > 100 µM | – | 26.3 µM | 6.23 µM | 15.3 µM | 22.6 µM | > 100 µM | 4.41 µM | – | 9.66 µM | 2.83 µM | 3.95 µM | 17.6 µM | 3.84 µM | 5.78 µM | 9.53 µM | 28.1 µM | –
11 | Cc1ccc2c(c1)NC(c1ccc(C(=O)O)cc1)c1cccn1-2 (stereo not given) | 72.7 µM | – | > 100 µM | > 100 µM | 42.6 µM | > 100 µM | > 100 µM | 64.9 µM | > 100 µM | – | – | – | – | – | > 100 µM | – | – | – | – | –
12 | CCOC(=O)c1cccc(=O)c(C(=O)OCC)c1 | > 100 µM | – | > 100 µM | 65.9 µM | > 100 µM | 75.9 µM | > 100 µM | > 100 µM | > 100 µM | – | – | – | – | – | > 100 µM | – | – | – | – | –
13 | O=C(Cc1ccccc1)NN1C(=O)C(Cl)C1c1cccc(O)c1 (stereo not given) | 34.8 µM | 53.7 µM | 34.6 µM | 8.44 µM | 31 µM | – | 35.2 µM | – | 31.6 µM | – | – | – | – | – | 34.1 µM | – | – | – | – | –
14 | CC(Cc1ccc(Cl)cc1Cl)NO (stereo not given) | > 100 µM | > 100 µM | > 100 µM | > 100 µM | > 100 µM | – | > 100 µM | > 100 µM | > 100 µM | – | – | – | – | – | > 100 µM | – | – | – | – | –
15 | COc1cc(C(=O)O)c([N+](=O)[O-])c(OC)c1OC | > 100 µM | > 100 µM | > 100 µM | – | > 100 µM | > 100 µM | > 100 µM | > 100 µM | > 100 µM | – | – | – | – | – | > 100 µM | – | – | – | – | –
16 | NC(N)=NC(CC(=O)O)c1ccccc1 (stereo not given) | > 100 µM | > 100 µM | > 100 µM | – | > 100 µM | > 100 µM | > 100 µM | > 100 µM | – | – | – | – | – | – | > 100 µM | – | – | – | – | –
17 | C1=CN2C[n+]3cccc(OCc4ccccc4)c3N=C2C(OCc2ccccc2)=C1 | 73.1 µM | > 100 µM | 36 µM | – | > 100 µM | 26.7 µM | 39.9 µM | > 100 µM | – | – | – | – | – | – | > 100 µM | – | – | – | – | –
18 | Cn1nc(-c2ccccc2NC(=O)C(F)(F)F)c(=O)n(C)c1=S | 89.4 µM | 56 µM | 30.1 µM | > 100 µM | 77.5 µM | 83.9 µM | 80.8 µM | – | > 100 µM | – | – | – | – | – | > 100 µM | – | – | – | – | –
19 | N#Cc1ccccc1NC(=O)C(=O)C(C(=O)c1ccccc1-c1ccccc1)C1OC(=O)c2ccccc21 (stereo not given) | – | 38.8 µM | 40.4 µM | > 100 µM | 89.4 µM | 22.7 µM | 26.1 µM | 45.2 µM | 70 µM | – | – | – | – | – | – | – | – | – | – | –
20 | COc1ccc(/C(=C/c2cc(OC)c(OC)c(OC)c2)[N+](=O)[O-])cc1 | – | 3.64 µM | 3.9 µM | – | 2.88 µM | 2.98 µM | 4.64 µM | 3.63 µM | – | – | 1.79 µM | 1.54 µM | 1.61 µM | 1.88 µM | 3.59 µM | 2.02 µM | – | 1.76 µM | 1.88 µM | –
